This note sets out measurements from PMC12040169 (PLOS Biology, 2025).

The nature of the series: in vitro. Particulars: human, hela cells.
Setting [1] is: % viability, bulk resorufin, single well.

Molecules are shown by their SMILES. Peptide text beside a SMILES is read from it. * marks the point of attachment. Hydrocinnamoyl = O=C(CCc1ccccc1)*

Regarding `CC(=O)N1CCCC(c2nc(-c3ccncc3)ncc2-c2ccccc2)C1` (stereo not drawn) [CBK291110], the viability – broadly, a read-out of living cells in per cent, often relative to untreated cells – at 28.5 h, 10 µM (% viability) came to 82.2%.
Regarding `NC(=O)CN1CC2(CCN(C(=O)OCc3ccccc3)CC2)c2ccccc21` [CBK116309], for the setting “% viability”, the viability at 28.5 h, 10 µM stood at 94.4%.
Take `O=C(CC[C@@H]1CNC(=O)[C@@H]2C[C@H](NC(=O)c3cccc(F)c3)CN12)Nc1ccccc1` [CBK289008]: the viability at 28.5 h, 10 µM (% viability) worked out at 83.9%.
On to `COc1ccc(Cl)cc1N1CCN(Cc2ccc3ccccc3c2)CC1` [CBK126414], for which the viability at 28.5 h, 10 µM (% viability) was 116%.
Same read-out and setting: for `Cc1oc(-c2ccccc2)nc1CCOc1ccc(NC(=O)c2ccc(Cl)cc2Cl)c(C(=O)O)c1` [CBK000168D] the value was 88.6%; for `Cc1noc(C)c1NC(=O)c1cnccc1C(F)(F)F` [CBK200306], 99.1%.
In the case of `CCCS(=O)(=O)N1CCN(CCN2C(=O)c3cccc4cccc(c34)C2=O)CC1` [CBK265559], the viability at 28.5 h, 10 µM (% viability) came to 81%.
Regarding `CC(=O)Nc1cccc(NC(=O)N2CCCCC2CO)c1` (stereo not drawn) [CBK156181], the viability at 28.5 h, 10 µM (% viability) came to 101%.
The same measure, in the same setting: to `CN(C)CCN1CCN(c2nc(-c3cccc4cccnc34)cnc2N)CC1` [CBK063464] belongs 94.3%; to `Nc1ncnc2c1nc1n2[C@@H]2O[C@@H]([C@H](O)C2O)[C@H]1O` (stereo partly drawn) [CBK201305], 98.1%; to `Cc1nc(C)c(C(=O)N2CCCc3ccccc32)s1` [CBK200345], 112%.
On the same count and under the same terms, for `O=C(NC1Cc2ccccc2C1)c1ccc2ccccc2n1` [CBK200355] the value was 81.8%; for `Clc1ccc(-c2ccc(CNCCCN3CCOCC3)o2)cc1` [CBK269562C], 90.5%.
With `O=C(Nc1ccc(S(=O)(=O)N2CCOCC2)cc1)c1ccc(CN2CCc3ccccc3C2)cc1` [CBK266550], where the note is “% viability”, the viability at 28.5 h, 10 µM turned out to be 96.2%.
For `O=C(NCc1cccc(C(F)(F)F)c1)N1CCN(c2cc(C(F)(F)F)ccn2)CC1` [CBK156435], the viability at 28.5 h, 10 µM (% viability) stood at 102%.
As for `CC(C)c1ccc(-c2csc(Nc3cccc(C(=O)O)c3)n2)cc1` [CBK299880], the viability at 28.5 h, 10 µM (% viability) came out at 104%.
As to `Cc1cc(SCc2ccc(Cl)cc2)nc(=O)[nH]1` [CBK287719], the viability at 28.5 h, 10 µM (% viability) was found to be 90.8%.
As to `O=C(NCCc1ccccc1)c1ccc(N2CCN(C(=O)c3ccccc3C(F)(F)F)CC2)nn1` [CBK153212], the viability at 28.5 h, 10 µM worked out at 83.2%.
For `O=C(O)c1nc2n(n1)C(C(F)(F)F)CC(c1cccs1)N2` (stereo not drawn) [CBK026415], where the note is “% viability”, the viability at 28.5 h, 10 µM was 97%.
Same read-out and setting: for `COCCNC(=O)CN(C)c1cnc2ccccc2n1` [CBK305265] the value was 89.2%; for `O=C(O)CNS(=O)(=O)c1cc(Cl)sc1Cl` [CBK034452], 91.4%.
Same read-out and setting: for `CCCCC(=O)N(C)c1c(C)nc2ccc(C(=O)NCc3cccs3)cn12` [CBK147073] the value was 103%; for `O=C(Cn1nc(C(F)(F)F)c2c1CCC2)N1CCN(Cc2ccccc2)CC1` [CBK266113], 109%; for `Cc1[nH]c2ccccc2c1/C=C1/SC(=S)N(CC(=O)O)C1=O` [CBK262220], 118%.
The same measure, in the same setting: for `O=C1COCC(=O)N1c1ccc(I)cc1` [CBK086499] the value was 87.5%; for `CC(C)N1CCC[C@H]1c1nc(-c2ccc(N3CCN(C)CC3)nc2)no1` [CBK288881], 83.6%.
Regarding `Cc1ccc2c(c1)c(=O)cc(C(F)(F)F)n2CCNC(=O)C1CC1` [CBK284831], under “% viability”, the viability at 28.5 h, 10 µM was 93.1%.
As to `Cn1nccc1CN1CCCC(COc2ccccc2F)C1` (stereo not drawn) [CBK281663], where the note is “% viability”, the viability at 28.5 h, 10 µM is 87.2%.
On the same count and under the same terms, to `COc1cnc(-c2cccc(C(=O)N(C)C)c2)c(NC(=O)c2ccccc2)n1` [CBK145385] belongs 102%; to `CNC(=O)C1(Cc2cccc(-c3cccs3)c2)CCN(C(=O)Cc2ccccc2)CC1` [CBK285745], 93.3%; to `CCCc1ccc(S(=O)(=O)Nc2ccc(C(=O)N3CCN(C)CC3)cc2)cc1` [CBK034547], 90.1%.
Still for that read-out and setting: to `O=C(O)CNC(=O)CNC(=O)CCc1ccccc1` [CBK286874] (Hydrocinnamoyl-Gly-Gly-OH) belongs 87.1%.
For `FC(F)C(F)(F)Oc1cccc(Nc2nccn3ccnc23)c1` [CBK066284], for the setting “% viability”, the viability at 28.5 h, 10 µM stood at 91.6%.
`COc1ccc(Cn2c(C)nc3c([N+](=O)[O-])c(C)c(C)cc32)cc1` [CBK115370]: the viability at 28.5 h, 10 µM (% viability) came to 102%.
Consider `CCn1cc(CN(C)Cc2nccs2)c2cc(C(=O)O)ncc21` [CBK306512], for which, for the setting “% viability”, the viability at 28.5 h, 10 µM worked out at 85.3%.
Still for that read-out and setting: to `CC(NC(=O)N(C)Cc1ccc2ccccc2n1)c1nncn1C(C)C` (stereo not drawn) [CBK307197] belongs 92.9%.
For `O=C1CCCN1CCCNC(=O)N1CCCCC1CO` (stereo not drawn) [CBK155985], the viability at 28.5 h, 10 µM (% viability) was found to be 91.8%.
For `O=C(O)CCC(=O)OC1N=C(c2ccccc2Cl)c2cc(Br)ccc2NC1=O` (stereo not drawn) [CBK263076], the viability at 28.5 h, 10 µM under setting [1] worked out at 85.2%.
For the compound `Cc1cc(C)cc(C(=O)N2CCC(NC(=O)c3cnn(C)c3)CC2)c1` [CBK305723], the viability at 28.5 h, 10 µM (% viability) came out at 92.3%.
Turning to `CCC(=O)N(C)C1CCN(c2ncnc3ccccc23)CC1` [CBK304829], under “% viability”, the viability at 28.5 h, 10 µM amounted to 91.8%.
Still for that read-out and setting: for `Cc1cc(S(=O)(=O)N2CCCCC2)ccc1OCC(=O)O` [CBK269254] the value was 80%.
On to `OCCCNc1cncc(-c2ccc(F)cc2F)n1` [CBK065851], for which the viability at 28.5 h, 10 µM (% viability) came to 96.1%.
On the same count and under the same terms, to `CCCc1n[nH]c(C2CCCC2)c1C(=O)OCC` [CBK115727] belongs 85.1%; to `O=C(Nc1ccccc1)c1ccc2c(c1)C(=O)N(c1cccc(N3C(=O)c4ccc(C(=O)Nc5ccccc5)cc4C3=O)n1)C2=O` [CBK261197], 91.5%.
On the same count and under the same terms, for `COc1ccccc1-c1cn2ccnc2c(NCCc2ccccn2)n1` [CBK037980] the value was 107%; for `CCOc1ccc2c(c1)-c1c(ssc1=S)C(C)(C)N2C(=O)CSc1nnc[nH]1` [CBK262680], 98.6%; for `c1ccc(Oc2ccccc2-c2cc(N3CCC(N4CCCCC4)CC3)ncn2)cc1` [CBK037728], 88.7%.
With `COc1cccc(Cn2c(=O)[nH]n(-c3ccccc3)c2=O)c1` [CBK122771], the viability at 28.5 h, 10 µM (% viability) is 97.7%.
Still for that read-out and setting: for `O=C(Nc1ccc2n(c1=O)C[C@H]1C[C@@H]2CN(C(=O)Cc2cccs2)C1)c1ccccc1` [CBK288709] the value was 82.4%; for `CC(C)(C)OC(=O)N1CCN(c2ccnc(N)n2)CC1` [CBK003529], 99.4%.
For `NS(=O)(=O)c1ccc(N2C(=O)C(O)=C(C(=O)c3ccc(Cl)cc3)C2c2ccc([N+](=O)[O-])cc2)cc1` (stereo not drawn) [CBK263758], the viability at 28.5 h, 10 µM (% viability) turned out to be 97.2%.
Still for that read-out and setting: for `O=C(NCc1ccc(Cl)cc1)c1cn(-c2ccccc2)c2ccc(CN3CCOCC3)cc2c1=O` [CBK018481] the value was 98.7%.
On the same count and under the same terms, to `OCCN(CCO)c1cncc(-c2ccc(Cl)cc2)n1` [CBK065748] belongs 95.2%.
With `CC(NC(=O)c1ccccc1Br)c1nnc(SCc2ccc([N+](=O)[O-])cc2)n1C` (stereo not drawn) [CBK267810], for the setting “% viability”, the viability at 28.5 h, 10 µM worked out at 103%.
As for `NC(=O)c1ccc(C#Cc2ccccc2)o1` [CBK009809], under “% viability”, the viability at 28.5 h, 10 µM turned out to be 94.8%.
Same read-out and setting: for `COCC(=O)Nc1ccc2c(c1)NC(=O)C(C)(C)CO2` [CBK287658] the value was 89%; for `O=C(Nc1cccc2ncccc12)c1cccc(Oc2ccccc2)c1` [CBK296716], 91.7%.
Consider `O=C1NC(=O)C(CCc2ccncc2)(Cc2ccc3c(c2)OCO3)C(=O)N1CCc1ccccc1` (stereo not drawn) [CBK266307], for which the viability at 28.5 h, 10 µM under setting [1] came out at 105%.
For the compound `Cc1nc2ccc(C(=O)NC3CCN(Cc4ccccc4)CC3)cn2c1N(C)C(=O)c1cccs1` [CBK146529], where the note is “% viability”, the viability at 28.5 h, 10 µM was found to be 99.9%.
The same measure, in the same setting: for `O[C@@H]1CN(Cc2ccccc2F)CC[C@H]1N1CCCC1` [CBK282934] the value was 96.9%; for `COc1cnc(-c2ccsc2)c(NC(=O)c2cc(C)oc2C)n1` [CBK145294], 93.2%.
On the same count and under the same terms, for `O=C(CC(CN1CCN(CCN2CCCC2)CC1)C(=O)O)Nc1ccccc1` (stereo not drawn) [CBK286833] the value was 109%; for `CN(C)C(=O)CN1CCCC2(CCN(C(=O)c3cc(F)c(F)cc3F)C2)C1` (stereo not drawn) [CBK132024], 93.5%; for `O=C(Nc1ccc(=O)n2c1[C@@H]1C[C@@H](CN(C(=O)c3ccc(F)cc3)C1)C2)c1cncnc1` [CBK288713], 112%.
On to `Cc1cc(NC(=O)CN(C)C(=O)Cc2cccc(C(F)(F)F)c2)no1` [CBK305564], for which the viability at 28.5 h, 10 µM (% viability) turned out to be 80.5%.
On the same count and under the same terms, to `CN1CCN(c2nc(NS(=O)(=O)c3ccc(C#N)cc3)cc3ccccc23)CC1` [CBK002977C] belongs 94.8%; to `O=C(Nc1ccccc1C(=O)O)c1ccc(S(=O)(=O)N2CCCCC2)cc1` [CBK265174], 103%; to `OC1CCC(Nc2nc(-c3ccccc3)cn3ccnc23)CC1` (stereo not drawn) [CBK037329], 98.5%.
Still for that read-out and setting: for `O=C(NCc1ccc(Cl)c(Cl)c1)c1cncc(-c2ccc(C(=O)N3CCOCC3)cc2)c1` [CBK158612] the value was 98.2%; for `Cc1ccc(C2(O)CCN(CCNC(=O)C3CCCCC3)CC2)cc1` [CBK283323], 97.4%.
For `Cn1nccc1NS(=O)(=O)c1cccc2cccnc12` [CBK062069], the viability at 28.5 h, 10 µM (% viability) worked out at 98.9%.
Regarding `COc1cccc(C(=O)Nc2nnc(-c3ccco3)o2)c1` [CBK287421], where the note is “% viability”, the viability at 28.5 h, 10 µM amounted to 106%.
Same read-out and setting: to `O=C(O)C1CCCN(C(=O)Cn2ccc3ccc(OCc4ccccc4)cc32)C1` (stereo not drawn) [CBK286814] belongs 89.6%; to `Cc1nnnn1CC(=O)Nc1nn(C)c2cccc(N3CCOCC3)c12` [CBK307335], 97%; to `Cc1cnn(CC(=O)N2CC[C@H]3NC(=O)c4ccccc4OCCCCC[C@H]3C2)c1` [CBK292010], 107%.
Take `O=S(=O)(c1cccc(C(F)(F)F)c1)n1ccc2c(CN3CCCC3)cccc21` [CBK116168T]: the viability at 28.5 h, 10 µM (% viability) was found to be 111%.
Same read-out and setting: to `O=C(O)c1cc(S(=O)(=O)N2CCOCC2)ccc1F` [CBK268398] belongs 106%.
For `COc1ccc(C(=O)Nc2cncc(OC3CCNCC3)n2)cc1` [CBK036370T], the viability at 28.5 h, 10 µM (% viability) amounted to 94.4%.
